Test results taken from patent US10683278B2 (JINAN UNIVERSITY, priority 2015, dated 2020).

System: 4T1 cells
Test: In vivo metastasis of 4T1 xenografts
Conditions: BALB/c mice, 4T1 subcutaneous, oral 30 and 90 mg/kg per day, 21 days
Description: BALB/c mice were selected and 4T1 cells (0.5×10^6/mouse) were inoculated subcutaneously on their right sides. Twenty-four days after inoculation, the mice were randomly divided into treatment and control groups (10 in each group). The mice in each group were orally administered for 21 days, and the drug dose in the treatment group was 30 mg/kg and 90 mg/kg of compound 2-lin per day, respectively. The mice were measured for body weight and tumor volume every two days. After the mice reached the end of administration, the liver tissues of mice were excised and collected, fixed with 10% formaldehyde solution, embedded in paraffin, sectioned, and stained with eosin. Microscopic examination of micrometastases in at least three fields of view was performed and the number of liver micrometastases was calculated.
The tumor volume is calculated by the formula of TV=W^2(L/2), wherein L is the length and W is the width.

**Q.** What does the source list for `CCc1ccc2c(c1)c(=O)c(C(=O)Nc1ccc(Oc3ncnc4cc(OC)c(OC)cc34)c(F)c1)c(C)n2C` [TL4800191, N-(4-(6,7-dimethoxyquinazolin-4-yloxy)-3-fluorophenyl)-6-ethyl-1,2-dimethyl-4-oxo-1,4-dihydroquinoline-3-carboxamide]?
**A.** growth of in situ tumor: no obvious inhibitory effect; number and size of liver metastasis: inhibit the number and size of liver metastasis in a dose-dependent manner
